Experimental data from PubChem BioAssay (NCI).
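Five concentrations, 48 hours, 96-well plates. GI50: concentration for 50% inhibition of growth. At the TGI there is no net growth.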

Tests used:
Assay in all cases: NCI tumour cell line growth inhibition, 48 h
OVCAR-5 ovarian = system: OVCAR-5 ovarian
KM12 colon = system: KM12 colon
SNB-75 CNS = system: SNB-75 CNS
M14 melanoma = system: M14 melanoma
BT-549 breast = system: BT-549 breast
TK-10 renal = system: TK-10 renal
A549 NSCLC = system: A549 NSCLC
SK-MEL-2 melanoma = system: SK-MEL-2 melanoma
OVCAR-3 ovarian = system: OVCAR-3 ovarian
NCI-H522 lung = system: NCI-H522 lung

NC(=S)N=Nc1c(O)[nH]c2c(Cl)cc(Cl)cc12
TGI (OVCAR-5 ovarian): > 100 µM | TGI (KM12 colon): 42.2 µM | TGI (SNB-75 CNS): 42.4 µM | TGI (M14 melanoma): 32.3 µM | TGI (BT-549 breast): 50.4 µM | TGI (TK-10 renal): > 100 µM | TGI (A549 NSCLC): > 100 µM | TGI (SK-MEL-2 melanoma): 34.8 µM | TGI (OVCAR-3 ovarian): 34.8 µM

COc1cc(Cl)cc(-c2nn(-c3cccc(NC(=O)Nc4cccc(C(F)(F)F)c4)c3)cc2-c2ccncc2)c1
GI50 (OVCAR-5 ovarian): 3.06 µM | TGI (OVCAR-5 ovarian): 30.1 µM | GI50 (NCI-H522 lung): 0.455 µM | TGI (NCI-H522 lung): 2.51 µM | GI50 (KM12 colon): 0.611 µM | TGI (KM12 colon): 4.79 µM | GI50 (SNB-75 CNS): 1.78 µM | TGI (SNB-75 CNS): 13.9 µM | GI50 (M14 melanoma): 1.34 µM | TGI (M14 melanoma): 3.98 µM | GI50 (BT-549 breast): 2.22 µM | TGI (BT-549 breast): 5.6 µM | GI50 (A549 NSCLC): 0.726 µM | TGI (A549 NSCLC): 7.42 µM | GI50 (SK-MEL-2 melanoma): 1.29 µM | TGI (SK-MEL-2 melanoma): 3.08 µM | GI50 (OVCAR-3 ovarian): 0.592 µM | TGI (OVCAR-3 ovarian): 4.62 µM

O=C1CC(c2c(-c3ccccc3)[nH]c3ccccc23)C(=O)N1c1ccccc1 (stereo unspecified)
TGI (OVCAR-5 ovarian): > 100 µM | TGI (KM12 colon): > 100 µM | TGI (SNB-75 CNS): > 100 µM | TGI (M14 melanoma): > 100 µM | TGI (TK-10 renal): > 100 µM | TGI (A549 NSCLC): > 100 µM | TGI (SK-MEL-2 melanoma): > 100 µM | TGI (OVCAR-3 ovarian): > 100 µM

C=C1c2ccccc2C(=O)c2c1c1c(C(=O)OC)c(OC(=O)OCc3ccc([N+](=O)[O-])cc3)ccc1n2Cc1ccccc1
GI50 (OVCAR-5 ovarian): 17.7 µM | TGI (OVCAR-5 ovarian): 49.5 µM | GI50 (NCI-H522 lung): 6.83 µM | TGI (NCI-H522 lung): 38.6 µM | GI50 (KM12 colon): 12.7 µM | TGI (KM12 colon): 61.4 µM | GI50 (M14 melanoma): 27.6 µM | TGI (M14 melanoma): > 100 µM | GI50 (BT-549 breast): 3.21 µM | TGI (BT-549 breast): 9.48 µM | GI50 (TK-10 renal): 21.1 µM | TGI (TK-10 renal): > 100 µM | GI50 (A549 NSCLC): 16.5 µM | TGI (A549 NSCLC): > 100 µM | GI50 (SK-MEL-2 melanoma): 23.9 µM | TGI (SK-MEL-2 melanoma): > 100 µM | GI50 (OVCAR-3 ovarian): 2.39 µM | TGI (OVCAR-3 ovarian): 8.05 µM

COc1ccc(C(C)c2cc(OC)c(OC)c(OC)c2)cc1 (stereo unspecified)
GI50 (OVCAR-5 ovarian): 0.291 µM | TGI (OVCAR-5 ovarian): > 50 µM | GI50 (NCI-H522 lung): 0.133 µM | TGI (NCI-H522 lung): > 50 µM | GI50 (KM12 colon): 0.058 µM | TGI (KM12 colon): > 50 µM | GI50 (BT-549 breast): 0.223 µM | TGI (BT-549 breast): > 50 µM | GI50 (TK-10 renal): > 50 µM | TGI (TK-10 renal): > 50 µM | GI50 (A549 NSCLC): 0.189 µM | TGI (A549 NSCLC): > 50 µM | GI50 (OVCAR-3 ovarian): 0.0889 µM | TGI (OVCAR-3 ovarian): 0.384 µM

Cc1cc(N(CCC#N)CCC#N)ccc1N=Nc1cc(Cl)ccc1Cl
TGI (OVCAR-5 ovarian): 27.4 µM | TGI (NCI-H522 lung): 3.41 µM | TGI (KM12 colon): 30 µM | TGI (SNB-75 CNS): 28.3 µM | TGI (M14 melanoma): 11.4 µM | TGI (TK-10 renal): 23.8 µM | TGI (A549 NSCLC): 38.5 µM | TGI (SK-MEL-2 melanoma): 33.8 µM | TGI (OVCAR-3 ovarian): 18.2 µM

CCOC(=O)C1C=C2O[C@@H]3OC4(CCCCC4)O[C@@H]3C2C2C(=O)CCC(=O)[C@@]12C(=O)OC (stereo partly specified)
TGI (OVCAR-5 ovarian): > 100 µM | TGI (NCI-H522 lung): > 100 µM | TGI (KM12 colon): > 100 µM | TGI (SNB-75 CNS): > 100 µM | TGI (M14 melanoma): > 100 µM | TGI (A549 NSCLC): > 100 µM | TGI (SK-MEL-2 melanoma): > 100 µM | TGI (OVCAR-3 ovarian): > 100 µM

C[C@]12CC[C@@H]3c4ccc(O)cc4CC[C@H]3[C@@H]1CC[C@@H]2NS(=O)(=O)c1ccc(Br)cc1
GI50 (OVCAR-5 ovarian): 2.31 µM | TGI (OVCAR-5 ovarian): 6.03 µM | GI50 (KM12 colon): 1.97 µM | TGI (KM12 colon): 3.89 µM | GI50 (SNB-75 CNS): 2.1 µM | TGI (SNB-75 CNS): 9.15 µM | GI50 (M14 melanoma): 2.14 µM | TGI (M14 melanoma): 4.66 µM | GI50 (BT-549 breast): 2.27 µM | TGI (BT-549 breast): 4.72 µM | GI50 (TK-10 renal): 3.84 µM | TGI (TK-10 renal): 12.2 µM | GI50 (A549 NSCLC): 2.89 µM | TGI (A549 NSCLC): 11.1 µM | GI50 (SK-MEL-2 melanoma): 2.35 µM | TGI (SK-MEL-2 melanoma): 5.3 µM | GI50 (OVCAR-3 ovarian): 2.18 µM | TGI (OVCAR-3 ovarian): 4.43 µM

O=C1/C(=C/c2ccc3c(c2)OCCO3)CCC/C1=C\c1ccc2c(c1)OCCO2
TGI (OVCAR-5 ovarian): > 100 µM | TGI (NCI-H522 lung): 92.3 µM | TGI (KM12 colon): 62.1 µM | TGI (SNB-75 CNS): 66.9 µM | TGI (M14 melanoma): 41.3 µM | TGI (TK-10 renal): > 100 µM | TGI (A549 NSCLC): > 100 µM | TGI (OVCAR-3 ovarian): 44.6 µM

COC(=O)c1cccc2c3ccccc3c3ccccc3c12
TGI (OVCAR-5 ovarian): > 100 µM | TGI (NCI-H522 lung): 80.9 µM | TGI (KM12 colon): > 100 µM | TGI (SNB-75 CNS): > 100 µM | TGI (M14 melanoma): > 100 µM | TGI (TK-10 renal): > 100 µM | TGI (A549 NSCLC): > 100 µM | TGI (SK-MEL-2 melanoma): 58.7 µM | TGI (OVCAR-3 ovarian): 56 µM

CC1(C)CCCC2(C)C3C(O)CC2(C)C(O)C31 (stereo unspecified)
TGI (OVCAR-5 ovarian): > 100 µM | TGI (NCI-H522 lung): > 100 µM | TGI (KM12 colon): > 100 µM | TGI (SNB-75 CNS): > 100 µM | TGI (M14 melanoma): > 100 µM | TGI (TK-10 renal): > 100 µM | TGI (A549 NSCLC): > 100 µM | TGI (SK-MEL-2 melanoma): > 100 µM | TGI (OVCAR-3 ovarian): > 100 µM

Cc1cccc(C)c1NC(=O)CCC/C(CC(=O)c1ccc(F)cc1)=N\NC(=O)C(=O)NN
TGI (OVCAR-5 ovarian): > 100 µM | TGI (KM12 colon): > 100 µM | TGI (SNB-75 CNS): > 100 µM | TGI (M14 melanoma): > 100 µM | TGI (TK-10 renal): > 100 µM | TGI (A549 NSCLC): > 100 µM | TGI (SK-MEL-2 melanoma): > 100 µM | TGI (OVCAR-3 ovarian): > 100 µM

C1OC1CN1CCN(CC2CO2)CC1 (stereo unspecified)
TGI (OVCAR-5 ovarian): > 100 µM | TGI (NCI-H522 lung): > 100 µM | TGI (KM12 colon): > 100 µM | TGI (SNB-75 CNS): > 100 µM | TGI (M14 melanoma): > 100 µM | TGI (TK-10 renal): > 100 µM | TGI (A549 NSCLC): > 100 µM | TGI (SK-MEL-2 melanoma): > 100 µM | TGI (OVCAR-3 ovarian): > 100 µM

Cn1c(=O)nc2n(-c3ccc(Cl)cc3)c(-c3ccccc3)c(-c3ccccc3)nc-2c1=O
TGI (OVCAR-5 ovarian): > 100 µM | TGI (NCI-H522 lung): > 100 µM | TGI (KM12 colon): > 100 µM | TGI (SNB-75 CNS): > 100 µM | TGI (M14 melanoma): 45.5 µM | TGI (TK-10 renal): > 100 µM | TGI (A549 NSCLC): > 100 µM | TGI (SK-MEL-2 melanoma): 60 µM | TGI (OVCAR-3 ovarian): 82.1 µM

CC1=CC(C)(c2c[nH]c3ccccc23)CC(C)(C)c2c1[nH]c1ccccc21 (stereo unspecified)
TGI (OVCAR-5 ovarian): 36.4 µM | TGI (KM12 colon): > 100 µM | TGI (SNB-75 CNS): 67.4 µM | TGI (M14 melanoma): 46.9 µM | TGI (TK-10 renal): > 100 µM | TGI (A549 NSCLC): 28.3 µM | TGI (OVCAR-3 ovarian): 28.6 µM

CC(=O)Oc1ccc2c(c1)[C@@]1(C)CCCC(C)(C)[C@@H]1CC2
GI50 (OVCAR-5 ovarian): 22.3 µM | TGI (OVCAR-5 ovarian): 40.5 µM | GI50 (NCI-H522 lung): 24.2 µM | TGI (NCI-H522 lung): 69.2 µM | GI50 (KM12 colon): 19.2 µM | TGI (KM12 colon): 45 µM | GI50 (M14 melanoma): 18.2 µM | TGI (M14 melanoma): 33.7 µM | GI50 (BT-549 breast): 36.5 µM | TGI (BT-549 breast): > 100 µM | GI50 (A549 NSCLC): 24.7 µM | TGI (A549 NSCLC): 64.8 µM | GI50 (SK-MEL-2 melanoma): 29.8 µM | TGI (SK-MEL-2 melanoma): > 100 µM | GI50 (OVCAR-3 ovarian): 15.8 µM | TGI (OVCAR-3 ovarian): 41.1 µM

N#Cc1c(-c2ccccc2)cc(-c2ccc(N)cc2)[nH]c1=O
TGI (OVCAR-5 ovarian): > 100 µM | TGI (NCI-H522 lung): > 100 µM | TGI (KM12 colon): > 100 µM | TGI (SNB-75 CNS): > 100 µM | TGI (M14 melanoma): > 100 µM | TGI (TK-10 renal): > 100 µM | TGI (A549 NSCLC): > 100 µM | TGI (OVCAR-3 ovarian): > 100 µM

NCCCCCNc1noc(Cc2c[nH]c3cc(Br)ccc23)n1
GI50 (OVCAR-5 ovarian): 5.29 µM | TGI (OVCAR-5 ovarian): 24.6 µM | GI50 (NCI-H522 lung): 0.748 µM | TGI (NCI-H522 lung): 12.6 µM | GI50 (KM12 colon): 1.24 µM | TGI (KM12 colon): 14.7 µM | GI50 (M14 melanoma): 0.445 µM | TGI (M14 melanoma): 10.3 µM | GI50 (BT-549 breast): 2.43 µM | TGI (BT-549 breast): 24.4 µM | GI50 (TK-10 renal): 7.66 µM | TGI (TK-10 renal): 22.3 µM | GI50 (A549 NSCLC): 3.88 µM | TGI (A549 NSCLC): 38.8 µM | GI50 (SK-MEL-2 melanoma): 3.22 µM | TGI (SK-MEL-2 melanoma): 16.3 µM | GI50 (OVCAR-3 ovarian): 1.4 µM | TGI (OVCAR-3 ovarian): 3.39 µM

CCc1cccc(C(C)C)c1NC(=O)CCl
TGI (NCI-H522 lung): > 100 µM | TGI (KM12 colon): > 100 µM | TGI (SNB-75 CNS): > 100 µM | TGI (M14 melanoma): > 100 µM | TGI (TK-10 renal): > 100 µM | TGI (A549 NSCLC): > 100 µM | TGI (SK-MEL-2 melanoma): > 100 µM | TGI (OVCAR-3 ovarian): > 100 µM
